According to the NIST ThermoML archive (doi:10.1016/j.jct.2011.08.016):

Settings: Liquid, Vibrating tube method

CCCCCCCCCC [decane]
mass density [kg/m3]
Settings	313.07 K	323 K	332.87 K	342.78 K	352.8 K	362.73 K
1000 kPa	715.64	707.96	700.33	692.65	–	–
2000 kPa	716.68	708.93	701.26	693.68	686.08	678.44
3000 kPa	717.38	709.81	702.21	694.72	687.17	679.58
4000 kPa	718.16	710.88	703.17	695.7	688.23	680.71
5000 kPa	719.02	711.52	704.12	696.68	689.3	681.85
6000 kPa	719.65	712.48	705.07	697.68	690.33	682.98
7000 kPa	720.52	713.3	705.98	698.61	691.38	684.09
8000 kPa	721.28	714.23	706.88	699.57	692.38	685.16
9000 kPa	722.11	715.05	707.79	700.54	693.41	686.25
10000 kPa	723.13	715.91	708.65	701.49	694.37	687.29
11000 kPa	723.65	716.74	709.52	702.4	695.36	688.32
12000 kPa	724.48	717.54	710.39	703.29	696.32	689.33
13000 kPa	725.48	718.35	711.26	704.14	697.29	690.34
14000 kPa	726.15	719.15	712.07	705.05	698.22	691.28
15000 kPa	726.86	719.92	712.9	705.93	699.15	692.36
16000 kPa	727.49	720.7	713.71	706.79	700.03	–
17000 kPa	728.18	721.46	714.52	707.6	700.94	–
18000 kPa	729.07	722.22	715.32	–	701.82	–
18010 kPa	–	–	–	708.57	–	–
19000 kPa	729.72	722.97	716.1	709.45	702.71	–
20000 kPa	730.26	723.71	716.88	710.3	703.59	–
21000 kPa	731.22	724.45	717.65	710.91	704.44	–
22000 kPa	731.8	725.18	718.43	711.92	705.25	–
23000 kPa	732.7	725.92	719.19	712.48	706.14	–
24000 kPa	733.26	726.62	719.99	713.42	706.95	–
25000 kPa	733.93	727.42	720.76	714.1	707.83	–
